Assay results as given in the CheMixHub ionic liquid set.
Where “and” joins values, the source holds several entries; their conditions need not be identical. Equal entries are not always repeated. ± gives the uncertainty stated by the source.

Experiment: xn = mol fraction of the nth substance listed

OC[C@H]1O[C@@H](O[C@H]2[C@H](O)[C@@H](O)[C@@H](O)O[C@@H]2CO)[C@H](O)[C@@H](O)[C@H]1O + CCCC[N+](C)(CCCC)CCCC.[Cl-] + O
viscosity, 100 kPa
Conditions	293.15 K	298.15 K	303.15 K	308.15 K	313.15 K
x1 = 0.0003513, x2 = 0	1.018 ± 0.02 mPa·s	0.904 ± 0.019 mPa·s	0.804 ± 0.019 mPa·s	0.725 ± 0.019 mPa·s	0.658 ± 0.019 mPa·s
x1 = 0.0003543, x2 = 0.000702	1.043 ± 0.02 mPa·s	0.929 ± 0.02 mPa·s	0.828 ± 0.019 mPa·s	0.745 ± 0.019 mPa·s	0.679 ± 0.019 mPa·s
x1 = 0.0003546, x2 = 0.0003601	1.027 ± 0.02 mPa·s	0.917 ± 0.019 mPa·s	0.819 ± 0.019 mPa·s	0.735 ± 0.019 mPa·s	0.667 ± 0.019 mPa·s
x1 = 0.0003558, x2 = 0.001062	1.057 ± 0.02 mPa·s	0.948 ± 0.02 mPa·s	0.843 ± 0.019 mPa·s	0.757 ± 0.019 mPa·s	0.696 ± 0.019 mPa·s
x1 = 0.0003573, x2 = 0.001421	1.069 ± 0.02 mPa·s	0.961 ± 0.02 mPa·s	0.856 ± 0.019 mPa·s	0.77 ± 0.019 mPa·s	0.706 ± 0.019 mPa·s
x1 = 0.0007059, x2 = 0	1.038 ± 0.02 mPa·s	0.919 ± 0.019 mPa·s	0.812 ± 0.019 mPa·s	0.731 ± 0.019 mPa·s	0.662 ± 0.019 mPa·s
x1 = 0.000709, x2 = 0.00036	1.049 ± 0.02 mPa·s	0.937 ± 0.02 mPa·s	0.834 ± 0.019 mPa·s	0.747 ± 0.019 mPa·s	0.673 ± 0.019 mPa·s
x1 = 0.0007119, x2 = 0.0007018	1.067 ± 0.02 mPa·s	0.948 ± 0.02 mPa·s	0.843 ± 0.019 mPa·s	0.758 ± 0.019 mPa·s	0.689 ± 0.019 mPa·s
x1 = 0.0007149, x2 = 0.001061	1.081 ± 0.02 mPa·s	0.969 ± 0.02 mPa·s	0.86 ± 0.019 mPa·s	0.771 ± 0.019 mPa·s	0.708 ± 0.019 mPa·s
x1 = 0.000718, x2 = 0.001421	1.094 ± 0.02 mPa·s	0.984 ± 0.02 mPa·s	0.876 ± 0.019 mPa·s	0.785 ± 0.019 mPa·s	0.72 ± 0.019 mPa·s
x1 = 0.001058, x2 = 0	1.059 ± 0.02 mPa·s	0.936 ± 0.02 mPa·s	0.827 ± 0.019 mPa·s	0.741 ± 0.019 mPa·s	0.671 ± 0.019 mPa·s
x1 = 0.001063, x2 = 0.0003599	1.07 ± 0.02 mPa·s	0.952 ± 0.02 mPa·s	0.848 ± 0.019 mPa·s	0.758 ± 0.019 mPa·s	0.681 ± 0.019 mPa·s
x1 = 0.001067, x2 = 0.0007015	1.088 ± 0.02 mPa·s	0.966 ± 0.02 mPa·s	0.857 ± 0.019 mPa·s	0.77 ± 0.019 mPa·s	0.698 ± 0.019 mPa·s
x1 = 0.001072, x2 = 0.001061	1.106 ± 0.02 mPa·s	0.989 ± 0.02 mPa·s	0.877 ± 0.019 mPa·s	0.785 ± 0.019 mPa·s	0.72 ± 0.019 mPa·s
x1 = 0.001077, x2 = 0.00142	1.118 ± 0.02 mPa·s	1.003 ± 0.021 mPa·s	0.891 ± 0.02 mPa·s	0.799 ± 0.02 mPa·s	0.733 ± 0.02 mPa·s
x1 = 0.001413, x2 = 0	1.079 ± 0.02 mPa·s	0.955 ± 0.02 mPa·s	0.843 ± 0.019 mPa·s	0.752 ± 0.019 mPa·s	0.68 ± 0.019 mPa·s
x1 = 0.001419, x2 = 0.0003598	1.093 ± 0.02 mPa·s	0.971 ± 0.02 mPa·s	0.86 ± 0.019 mPa·s	0.77 ± 0.019 mPa·s	0.694 ± 0.019 mPa·s
x1 = 0.001425, x2 = 0.0007013	1.11 ± 0.02 mPa·s	0.986 ± 0.02 mPa·s	0.872 ± 0.019 mPa·s	0.784 ± 0.019 mPa·s	0.709 ± 0.019 mPa·s
x1 = 0.001431, x2 = 0.001061	1.127 ± 0.02 mPa·s	1.006 ± 0.022 mPa·s	0.893 ± 0.021 mPa·s	0.8 ± 0.021 mPa·s	0.734 ± 0.02 mPa·s
x1 = 0.001437, x2 = 0.00142	–	1.14 ± 0.024 mPa·s	1.02 ± 0.024 mPa·s	0.909 ± 0.023 mPa·s	0.747 ± 0.02 mPa·s and 0.816 ± 0.021 mPa·s
x1 = 0.001765, x2 = 0	1.097 ± 0.02 mPa·s	0.971 ± 0.02 mPa·s	0.858 ± 0.019 mPa·s	0.764 ± 0.019 mPa·s	0.689 ± 0.019 mPa·s
x1 = 0.001774, x2 = 0.0003596	1.118 ± 0.02 mPa·s	0.987 ± 0.02 mPa·s	0.879 ± 0.019 mPa·s	0.783 ± 0.019 mPa·s	0.705 ± 0.019 mPa·s
x1 = 0.00178, x2 = 0.000701	1.133 ± 0.02 mPa·s	1.003 ± 0.02 mPa·s	0.889 ± 0.019 mPa·s	0.797 ± 0.019 mPa·s	0.719 ± 0.019 mPa·s
x1 = 0.001787, x2 = 0.00106	1.15 ± 0.02 mPa·s	1.024 ± 0.022 mPa·s	0.909 ± 0.021 mPa·s	0.814 ± 0.021 mPa·s	0.745 ± 0.02 mPa·s
x1 = 0.001795, x2 = 0.001419	–	1.164 ± 0.026 mPa·s	1.038 ± 0.025 mPa·s	0.923 ± 0.024 mPa·s	0.76 ± 0.019 mPa·s and 0.829 ± 0.022 mPa·s

O=C(O)CCl + CCCC[N+](CCCC)(CCCC)CCCC.O=S(=O)([O-])O
100 kPa
Conditions	electrical conductivity, 303.15 K [S/m]	electrical conductivity, 308.15 K [S/m]	electrical conductivity, 313.15 K [S/m]	electrical conductivity, 333.15 K [S/m]	viscosity, 313.15 K [mPa·s]	viscosity, 333.15 K [mPa·s]
x2 = 0.333	0.027 ± 0.0011	0.0376 ± 0.0011	–	–	–	–
x2 = 0.5	–	–	0.01 ± 0.001	0.0382 ± 0.001	1123 ± 61	294.2 ± 9.9

CNC(C)=O + CCCC[n+]1ccn(C)c1.F[B-](F)(F)F
101 kPa
Conditions	viscosity [mPa·s]
293.15 K, x2 = 0.0711	6.4 ± 0.39
293.15 K, x2 = 0.1409	7.42 ± 0.45
293.15 K, x2 = 0.4343	19.1 ± 1.2
293.15 K, x2 = 0.7774	65.8 ± 4
298.15 K, x2 = 0.0711	5.41 ± 0.33
298.15 K, x2 = 0.2042	7.19 ± 0.44
298.15 K, x2 = 0.4992	19.7 ± 1.2
298.15 K, x2 = 0.7774	51.7 ± 3.1
303.15 K, x2 = 0.1409	5.66 ± 0.34
308.15 K, x2 = 0	3.53 ± 0.21
308.15 K, x2 = 0.714	24.7 ± 1.5
313.15 K, x2 = 0.4992	9.8 ± 0.59
318.15 K, x2 = 0.0711	3.3 ± 0.2
318.15 K, x2 = 0.1409	3.74 ± 0.23

CN(C)CCO + CCCC[n+]1ccn(C)c1.F[P-](F)(F)(F)(F)F
101 kPa
Conditions	electrical conductivity [S/m]	viscosity [mPa·s]
288.15 K, x1 = 0.3182	0.1534 ± 0.0001	120 ± 48
288.15 K, x1 = 0.3764	0.1645 ± 0.0001	–
288.15 K, x1 = 0.5166	0.1918 ± 0.0001	63 ± 25
288.15 K, x1 = 0.709	0.211 ± 0.001	29 ± 12
288.15 K, x1 = 0.8063	0.1998 ± 0.0001	18 ± 7.2
293.15 K, x1 = 0.2143	0.187 ± 0.001	117 ± 47
293.15 K, x1 = 0.4405	–	61 ± 24
293.15 K, x1 = 0.4637	0.237 ± 0.001	–
293.15 K, x1 = 0.5166	0.25 ± 0.001	48 ± 19
293.15 K, x1 = 0.8063	0.245 ± 0.001	14.6 ± 5.8
298.15 K, x1 = 0.1221	0.211 ± 0.001	117 ± 47
298.15 K, x1 = 0.4637	0.308 ± 0.001	–
298.15 K, x1 = 0.9128	0.1874 ± 0.0001	6.7 ± 2.7
298.15 K, x1 = 1	–	3.8 ± 1.5
303.15 K, x1 = 0.3764	0.369 ± 0.001	–
303.15 K, x1 = 0.4405	–	36 ± 14
303.15 K, x1 = 0.8063	0.355 ± 0.001	9.7 ± 3.9
308.15 K, x1 = 0.4405	–	28 ± 11
308.15 K, x1 = 0.4637	0.483 ± 0.001	–
313.15 K, x1 = 0.605	0.611 ± 0.001	14 ± 5.6
318.15 K, x1 = 0.3764	0.679 ± 0.001	–
323.15 K, x1 = 0.3764	0.792 ± 0.001	–
323.15 K, x1 = 0.5166	0.849 ± 0.001	12.7 ± 5.1
323.15 K, x1 = 1	–	2.04 ± 0.82

[I-].[Li+] + CCCC[n+]1ccn(C)c1.N#C[N-]C#N
electrical conductivity [S/m], 101 kPa
Conditions	x2 = 0.917	x2 = 0.9294	x2 = 0.9462	x2 = 0.9628	x2 = 0.9799
288.15 K	–	0.389 ± 0.039	0.465 ± 0.047	0.506 ± 0.051	0.569 ± 0.057
298.15 K	0.577 ± 0.058	0.643 ± 0.065	0.749 ± 0.075	0.809 ± 0.081	0.892 ± 0.09
333.15 K	1.92 ± 0.19	2.04 ± 0.2	2.28 ± 0.23	2.33 ± 0.23	2.56 ± 0.26

COCCOC + CCCC[n+]1ccn(C)c1.O=S(=O)([N-]S(=O)(=O)C(F)(F)F)C(F)(F)F
Conditions	electrical conductivity [S/m]
294.5 K, 100 kPa, x2 = 0.02332	0.62 ± 0.06

CCOCCO + CCCC[n+]1ccn(C)c1.[Br-]
100 kPa, x2 = 0
Conditions	viscosity [mPa·s]
298.15 K	1.81 ± 0.18
303.15 K	1.61 ± 0.16
308.15 K	1.45 ± 0.15
313.15 K	1.33 ± 0.13

CCCC[n+]1ccn(C)c1.O=[N+]([O-])[O-] + CCCC[n+]1ccn(C)c1.[Cl-]
Conditions	viscosity [mPa·s]
293 K, 101 kPa, x2 = 0.2549	223 ± 14
